Experiment [1] concerns the target T1, RIG-I (Homo sapiens, UniProt O95786).
T1 sequence (O95786 1-925): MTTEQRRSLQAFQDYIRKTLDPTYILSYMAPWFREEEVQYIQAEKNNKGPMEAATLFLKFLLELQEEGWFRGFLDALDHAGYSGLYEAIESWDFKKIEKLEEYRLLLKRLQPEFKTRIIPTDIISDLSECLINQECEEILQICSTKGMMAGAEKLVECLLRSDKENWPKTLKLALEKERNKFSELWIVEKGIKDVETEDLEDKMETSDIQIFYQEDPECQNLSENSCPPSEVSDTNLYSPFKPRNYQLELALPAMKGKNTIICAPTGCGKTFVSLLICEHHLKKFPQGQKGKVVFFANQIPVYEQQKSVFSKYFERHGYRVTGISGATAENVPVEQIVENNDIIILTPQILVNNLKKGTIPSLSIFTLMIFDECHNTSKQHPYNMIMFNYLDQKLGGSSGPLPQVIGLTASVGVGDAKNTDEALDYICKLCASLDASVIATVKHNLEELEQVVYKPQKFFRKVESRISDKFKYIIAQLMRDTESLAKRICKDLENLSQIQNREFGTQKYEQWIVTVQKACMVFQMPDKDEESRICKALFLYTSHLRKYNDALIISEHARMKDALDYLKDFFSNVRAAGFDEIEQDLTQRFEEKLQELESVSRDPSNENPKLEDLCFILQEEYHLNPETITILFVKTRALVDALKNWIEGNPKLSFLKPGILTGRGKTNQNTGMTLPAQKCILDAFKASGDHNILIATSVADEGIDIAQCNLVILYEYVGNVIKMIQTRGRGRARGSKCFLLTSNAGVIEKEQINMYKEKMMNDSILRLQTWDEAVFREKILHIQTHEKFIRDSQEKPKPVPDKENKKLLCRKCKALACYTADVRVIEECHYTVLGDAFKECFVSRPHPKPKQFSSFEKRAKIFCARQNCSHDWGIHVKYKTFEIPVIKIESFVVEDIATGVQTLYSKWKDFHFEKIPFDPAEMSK
The experiment can be described thus: IFN-β/Firefly dual-luciferase reporter assay in HEK 293T cells transfected with hRIG-I. Format: cell-based. To be noted: HEK293T cells, SLR14 challenge. On the procedure: Two different assays were used for evaluating RIG-I inhibition in cells. In the first assay, HEK 293T cells were used to test the influence of compounds on RIG-I signaling activity while simultaneously reporting on relative toxicity. In this case, inhibitor compounds were introduced via growth media replacement rather than by direct addition to cell plates. Specifically, HEK 293T cells (which express RIG-I only under the control of a transfected plasmid) were grown and maintained in T75 flasks containing Dulbecco's Modified Eagle Medium, DMEM (Life Technologies) supplemented with 10% heat-inactivated fetal bovine serum (Hyclone) and non-essential amino acids (Life Technologies). For the IFN-β induction assays, 0.5 ml of cells at 65,000 cells/ml was placed (seeded) in 24-well plates. After 24 h, each well of cells was transfected with 5 ng WT pUNO-hRIG-I (Invivogen), 6 ng pRL-TK constitutive Renilla luciferase reporter plasmid (Promega) and 150 ng of an IFN-β/Firefly luciferase reporter plasmid using the Lipofectamine 2000 transfection reagent (Life Technologies) following the manufacturer's protocol. Protein expression was allowed to proceed for 24 hours. In parallel, a six-point dilution series of each compound of interest was made in a DMSO vehicle and then diluted further into DMEM such that a constant DMSO concentration of 1% is maintained over the entire drug dilution. The DMEM growth media was aspirated from each well of cells and replaced with DMEM that contains the drug. After 30 minutes, the cells were challenged by transfection with 1 μg of the synthetic stem-loop RNA (SLR14) in Lipofectamine 2000. After 5-6 hours, cells were harvested for luminescence analysis in the following manner: Growth media was aspirated from each well, and 100 μl of passive lysis buffer (Promega) was added. Lysis proceeded for 15 min at room temperature. Lysates were clarified by centrifugation, and 20 μl samples of the supernatant were transferred to a 96-well assay plate for analysis using the Dual-Luciferase Reporter Assay System (Promega). Luminescence was measured using a Biotek Synergy H1 plate reader. The resulting Firefly luciferase activity (i.e. the induction of IFN-0) was normalized to the activity of the constitutively expressed Renilla luciferase to account for differences in confluency, transfection efficiency and cell viability across sample wells.
Background: A reporter such as luciferase makes a cellular process visible.

Experiment [2] has as its target T1, RIG-I. The experiment can be described thus: qRT-PCR of IFN and ISG levels in A549 cells with endogenous RIG-I. Format: cell-based. To be noted: SLR14 challenge, qRT-PCR normalized to HPRT. On the procedure:
In the second assay, inhibition of RIG-I that is endogenously expressed in A549 cells was evaluated by monitoring IFN and ISG levels by qRT-PCR. A549 cells were propagated in T75 flasks containing Dulbecco's Modified Eagle Medium, DMEM, (Life Technologies) supplemented with 10% heat-inactivated fetal bovine serum (Hyclone) and Non-Essential Amino Acids (Life Technologies). For the assay, 0.5 ml of cells at 100,000 cells/ml was seeded in 24-well plates. After 24 h, DMEM growth media was replaced with media containing drug, as described above for the IFN induction assay using HEK293T cells. After 30 minutes, the cells were transfected with 1 μg of the synthetic stem-loop RNA (SLR14), using the Lipofectamine 2000 transfection reagent. After 5-6 hours, cells were harvested and total RNA was isolated using E.Z.N.A total RNA isolation kit (Omega Bio-tek), following the manufacturer's instructions. Genomic DNA contamination was removed by DNase I treatment (Omega Bio-tek) directly on the Mini column. Total RNA was reverse-transcribed into cDNA using iScript Reverse Transcription Supermix (Bio-RAD) according to the manufacturer's instructions. […] Each sample was analyzed in triplicate and normalized to HPRT expression. Gene expression quantification was performed according to the Livak ΔΔCt method.

Molecules are shown by their SMILES.

What is called IC50 is the concentration that gives 50% inhibition.

Consider `CCC1(CC)C(=O)N=C2C1=C(OCc1ccccc1)C(=O)c1ccccc12` [RIG012, 4-Benzyloxy-3,3-diethyl-2H,3H,5H-benzo[g]indole-2,5-dione], for which the “inhibition of RIG-I signaling / IFN induction, result in words” value in experiment [1] is listed as “potent, dose-dependent inhibition of RIG-I signaling”. In experiment [1] (compound in growth medium, read-out: IC50, inhibition of RIG-I signaling (IFN induction luciferase)), the IC50 came out at 1250 nM. Moreover, in experiment [2], the “effect on IFN-β and ISG hRsad2 expression” value is on record as “potent, dose-dependent effect”.

For the origin of these results see US20220395487A1, “RIG-I INNATE IMMUNE RECEPTOR ANTAGONISTS AND METHODS OF USING SAME” (YALE UNIVERSITY, priority 2019, published 2022).
